According to US11135202B2, “Thiazolide compounds for treating viral infections” (Romark Laboratories L.C., priority 2016, dated 2021):
≈ marks a conversion by molar mass, not a printed value.

Tests used:
Sendai virus (SeV) [1] = assay: SeV virus yield in AGMK cells (HA titration, plaque assay; MTT viability; cytopathic effect); assay type: cell-based
Sendai virus (SeV) [2] = assay type: cell-based
[3] = tested on: respiratory syncytial virus; assay: Study RM08-3002 clinical trial, time to alleviation of symptoms, RSV patients; conditions: human, in vivo
RSV-A2 = RSV-A2 yield in infected HeLa cells (virus-induced syncytia counted by immunofluorescence); assay type: cell-based

CC(=O)Oc1ccccc1C(=O)Nc1ncc([N+](=O)[O-])s1 [nitazoxanide]
protection of infected cells from virus-induced damage (Sendai virus (SeV) [1]; SeV 3 PFU/cell, 10 μg/ml, 24 h p.i.): cytoprotective | inhibition of SeV replication (Sendai virus (SeV) [1]; at concentrations non-toxic for the host cells): effective | inhibition of SeV in A549 cells (Sendai virus (SeV) [2]): also effective | reduction in duration of symptoms at the median vs placebo [3]: 76 h | IC50 (RSV-A2; human respiratory syncytial virus, HeLa cells, MOI 1 TCID50/cell, syncytia at 48 hours p.i., non cytotoxic doses, read-out: IC50, antiviral activity against RSV-A2): 0.3 µg/mL (≈ 0.976 µM) | IC90 (RSV-A2; human respiratory syncytial virus, HeLa cells, MOI 1 TCID50/cell, syncytia at 48 hours p.i., non cytotoxic doses, read-out: IC90, antiviral activity against RSV-A2): 0.8 µg/mL (≈ 2.6 µM) | effect of treatment against RSV (RSV-A2; in vitro): effective against RSV
